Measured values as given in PubChem BioAssay (NCI).
“And” between values parts separate entries of the source, which are not always exact repeats. Identical values can stand only once.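 The compound was tested at five concentrations on cells cultured in 96-well plates, with a 48-hour exposure period. GI50 marks 50% less growth. TGI: total growth inhibition.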

Columns and labels:
Assay in all cases: NCI tumour cell line growth inhibition, 48 h
[1] = system: DLD-1 colon
[2] = system: HOP-92 NSCLC
[3] = system: LXFL 529 NSCLC
[4] = system: M19-MEL melanoma
[5] = system: DMS 273 small cell lung
[6] = system: SK-MEL-5 melanoma
[7] = system: SNB-19 CNS
[8] = system: SF-539 CNS
[9] = system: UO-31 renal
[10] = system: IGROV1 ovarian
[11] = system: UACC-62 melanoma
[12] = system: SK-OV-3 ovarian

Structure (SMILES): CC(=O)Nc1cc(N(CCOS(C)(=O)=O)CCOS(C)(=O)=O)ccc1N=O
- TGI [1]: > 100 µM
- TGI [2]: > 100 µM
- TGI [3]: > 100 µM
- TGI [4]: > 100 µM
- TGI [5]: > 100 µM
- TGI [6]: > 100 µM
- TGI [7]: > 100 µM
- TGI [8]: > 100 µM
- TGI [9]: > 100 µM
- TGI [10]: > 100 µM
- TGI [11]: > 100 µM

Structure (SMILES): COC(=O)C(CC(C)C)NC(=O)NC12CC3CC(CC(F)(C3)C1)C2 (stereo unspecified)
- TGI [1]: > 100 µM
- TGI [2]: > 100 µM
- TGI [3]: > 100 µM
- TGI [4]: > 100 µM
- TGI [6]: > 100 µM
- TGI [7]: > 100 µM
- TGI [12]: > 100 µM
- TGI [8]: > 100 µM
- TGI [9]: > 100 µM
- TGI [10]: > 100 µM
- TGI [11]: > 100 µM

Structure (SMILES): CCOC(=O)CSC(=O)NCCCl
- TGI [1]: > 100 µM
- TGI [2]: > 100 µM
- TGI [3]: > 100 µM
- TGI [5]: > 100 µM
- TGI [7]: > 100 µM
- TGI [12]: > 100 µM
- TGI [8]: > 100 µM
- TGI [9]: > 100 µM
- TGI [10]: > 100 µM
- TGI [11]: > 100 µM

Structure (SMILES): CC1=CC(=C(c2ccc(N)cc2)c2ccc(N)cc2)C=CC1=N
- TGI [1]: > 100 µM
- GI50 [2]: 0.949 µM and 3.25 µM
- TGI [3]: 13.6 µM
- TGI [4]: 14.5 µM
- GI50 [6]: 0.928 µM
- TGI [6]: 2.3 µM and 5.45 µM and 3.41 µM
- GI50 [7]: 0.494 µM
- TGI [7]: 14.4 µM and 20.1 µM and 28.1 µM
- GI50 [12]: 2.44 µM and 4 µM
- TGI [12]: 8.04 µM and 25.2 µM and 17.2 µM
- GI50 [8]: 0.632 µM and 2.32 µM
- TGI [8]: 8.36 µM and 9.18 µM and 16.9 µM
- GI50 [9]: 9.52 µM and 14.9 µM
- TGI [9]: 55.6 µM and 50.5 µM and 41.3 µM
- GI50 [10]: 4.06 µM and 5.72 µM
- TGI [10]: 35.9 µM and > 57.7 µM and 35.1 µM
- GI50 [11]: 1.3 µM and 3.09 µM
- TGI [11]: 5.53 µM and 18.3 µM and 16.1 µM

Structure (SMILES): COC(=O)/C(=N\Nc1nc(=S)[nH]n1N)C(C#N)c1ccccc1 (stereo unspecified)
- TGI [1]: > 100 µM
- TGI [3]: > 100 µM
- TGI [4]: > 100 µM
- TGI [6]: > 100 µM
- TGI [7]: > 100 µM
- TGI [12]: > 100 µM
- TGI [9]: > 100 µM
- TGI [10]: > 100 µM
- TGI [11]: > 100 µM

Structure (SMILES): CC(/C(=N\Nc1ccccc1)c1ccc(O)cc1)C1C(=O)Oc2ccccc21 (stereo unspecified)
- TGI [1]: > 100 µM
- TGI [3]: > 100 µM
- TGI [4]: > 100 µM
- TGI [5]: > 100 µM
- TGI [6]: > 100 µM
- TGI [7]: > 100 µM
- TGI [8]: > 100 µM
- TGI [9]: > 100 µM
- TGI [10]: > 100 µM
- TGI [11]: > 100 µM

Structure (SMILES): CCOC(=O)C1C2CCC(C2)C1(CCl)C(=O)OCC (stereo unspecified)
- TGI [2]: > 100 µM
- TGI [3]: > 100 µM
- TGI [4]: > 100 µM
- TGI [5]: > 100 µM
- TGI [6]: > 100 µM
- TGI [7]: > 100 µM
- TGI [12]: > 100 µM
- TGI [9]: > 100 µM
- TGI [10]: > 100 µM
- TGI [11]: > 100 µM

Structure (SMILES): O=C1c2ccccc2C(=O)N1CCN(CCN1C(=O)c2ccccc2C1=O)Cn1cccn1
- TGI [1]: > 100 µM
- TGI [2]: > 100 µM
- TGI [3]: > 100 µM
- TGI [4]: > 100 µM
- TGI [5]: > 100 µM
- TGI [6]: > 100 µM
- TGI [7]: > 100 µM
- TGI [12]: > 100 µM
- TGI [9]: > 100 µM
- TGI [11]: 63.2 µM

Structure (SMILES): O=C(CN(/C=C/C(=O)C(F)(F)F)c1ccc(Cl)cc1)c1ccccc1
- GI50 [2]: 10.4 µM
- TGI [2]: 28.1 µM
- GI50 [6]: 12.1 µM
- TGI [6]: 27.7 µM
- GI50 [7]: 33 µM
- TGI [7]: > 100 µM
- GI50 [12]: 51.2 µM
- TGI [12]: > 100 µM
- GI50 [8]: 13.1 µM
- TGI [8]: 27.8 µM
- GI50 [9]: 13.5 µM
- TGI [9]: 29.9 µM
- GI50 [10]: 0.303 µM
- TGI [10]: 24.3 µM
- GI50 [11]: 11.7 µM
- TGI [11]: 26.4 µM

Structure (SMILES): COC1CCN(C(=O)c2cc(Cc3n[nH]c(=O)c4ccccc34)ccc2F)CC1
- GI50 [2]: 41.5 µM
- TGI [2]: > 100 µM
- GI50 [6]: 32 µM
- TGI [6]: > 100 µM
- GI50 [7]: 57.6 µM
- TGI [7]: > 100 µM
- GI50 [12]: > 100 µM
- TGI [12]: > 100 µM
- GI50 [8]: > 100 µM
- TGI [8]: > 100 µM
- GI50 [9]: 84.5 µM
- TGI [9]: > 100 µM
- GI50 [10]: > 60.4 µM
- TGI [10]: > 100 µM
- GI50 [11]: 40 µM
- TGI [11]: > 100 µM

Structure (SMILES): CC(=O)c1cc(C(=O)c2ccc3c(c2)Sc2ccccc2N3)c2c(C)cc(C)cn12
- GI50 [2]: 1.24 µM
- TGI [2]: > 31 µM
- GI50 [6]: 0.402 µM
- TGI [6]: 2.13 µM
- GI50 [7]: 0.443 µM
- TGI [7]: > 100 µM
- GI50 [12]: 0.342 µM
- GI50 [8]: 0.185 µM
- TGI [8]: 0.535 µM
- GI50 [9]: 0.635 µM
- TGI [9]: > 100 µM
- GI50 [10]: 0.596 µM
- TGI [10]: > 100 µM
- GI50 [11]: 0.254 µM
- TGI [11]: > 100 µM

Structure (SMILES): CN(C)CCNC(=O)C(C)(C)Oc1ccc(C(=O)c2ccc(Cl)cc2)cc1Cl
- TGI [2]: 18.1 µM
- GI50 [6]: 1.53 µM
- TGI [6]: 6.11 µM and 2.97 µM
- TGI [7]: 26 µM
- TGI [12]: 29.6 µM
- TGI [8]: 22.2 µM
- TGI [9]: 22.8 µM
- TGI [10]: 25.3 µM
- GI50 [11]: 2.81 µM
- TGI [11]: 4.29 µM

Structure (SMILES): C=CC(=O)NCc1cccc(Nc2ncc(Br)c(NCCCNC(=O)C3CCC3)n2)c1
- GI50 [2]: 0.637 µM and 0.596 µM
- TGI [2]: 5.21 µM and 16.4 µM
- GI50 [6]: 2.23 µM and 1.87 µM
- TGI [6]: 5.35 µM and 5.81 µM
- GI50 [7]: 1.07 µM and 1.38 µM
- TGI [7]: 12.5 µM and 18.3 µM
- GI50 [12]: 0.9 µM
- TGI [12]: 9.84 µM
- GI50 [8]: 0.369 µM and 0.475 µM
- TGI [8]: 2.03 µM and 2.72 µM
- GI50 [9]: 0.256 µM and 0.26 µM
- TGI [9]: 1.11 µM and 0.916 µM
- GI50 [10]: 1.17 µM and 0.732 µM
- TGI [10]: 12.5 µM and 15.8 µM
- GI50 [11]: 2.3 µM and 2.9 µM
- TGI [11]: 5.23 µM and 7.37 µM

Structure (SMILES): O=C1Nc2c(C(F)(F)F)cccc2[C@@]1(c1ccc(O)cc1)c1ccc(OC(F)(F)F)cc1
- GI50 [2]: 0.0136 µM
- TGI [2]: 0.0802 µM
- GI50 [6]: 0.2 µM
- TGI [6]: 16.6 µM
- GI50 [7]: 0.0285 µM
- TGI [7]: 0.0974 µM
- GI50 [12]: 0.0415 µM
- TGI [12]: 0.38 µM
- GI50 [8]: 0.0161 µM
- TGI [8]: 0.0446 µM
- GI50 [9]: 0.0143 µM
- TGI [9]: 0.028 µM
- GI50 [10]: < 0.01 µM
- TGI [10]: 0.0417 µM
- GI50 [11]: 0.0213 µM
- TGI [11]: 0.071 µM

Structure (SMILES): O=C1CCC2CC(C(=O)c3ccccc3)CCC2CN1 (stereo unspecified) (tested in a mixture with another compound)
- TGI [1]: > 100 µM
- TGI [3]: > 100 µM
- TGI [4]: > 100 µM
- TGI [5]: > 100 µM
- TGI [6]: > 100 µM
- TGI [7]: > 100 µM
- TGI [12]: > 100 µM
- TGI [8]: > 100 µM
- TGI [9]: > 100 µM
- TGI [10]: > 100 µM
- TGI [11]: > 100 µM

Structure (SMILES): CC(C)(C)C(=O)OCOP(=O)(OCOC(=O)C(C)(C)C)C1CC(O)N(O)C1=O (stereo unspecified)
- GI50 [2]: 1.84 µM
- TGI [2]: 8.99 µM
- GI50 [6]: 21.5 µM
- TGI [6]: > 100 µM
- GI50 [7]: 2.37 µM
- TGI [7]: 7.33 µM
- GI50 [12]: 25.8 µM
- TGI [12]: > 100 µM
- GI50 [8]: 3.18 µM
- TGI [8]: 22.1 µM
- GI50 [9]: 2.92 µM
- TGI [9]: 37.6 µM
- GI50 [10]: 2.83 µM
- TGI [10]: 9.72 µM
- GI50 [11]: 2.37 µM
- TGI [11]: 7.4 µM

Structure (SMILES): CCCCCCCCCCCCCC1=NCCN1CCO
- GI50 [2]: 3.65 µM
- TGI [2]: 23.6 µM
- GI50 [6]: 3.26 µM
- TGI [6]: 11.2 µM
- GI50 [7]: 9.59 µM
- TGI [7]: 26.8 µM
- GI50 [12]: 7.04 µM
- TGI [12]: 18.3 µM
- GI50 [8]: 1.95 µM
- TGI [8]: 3.94 µM
- GI50 [9]: 2.46 µM
- TGI [9]: 6.16 µM
- GI50 [10]: 4.46 µM
- TGI [10]: > 100 µM
- GI50 [11]: 1.96 µM
- TGI [11]: 3.95 µM
